Measurements taken from the NIST ThermoML archive (doi:10.1016/j.jct.2004.07.008).
Numbers after ± are expanded uncertainties.

Tests used:
[1] = xn = mol fraction of the nth substance listed; details: 278.15 K; 100 kPa; Liquid; x2 = 0
[2] = 100 kPa, Liquid

| Structure (SMILES) | mass density [1] | mass density ([2]; 278.15 K) | mass density ([2]; 288.15 K) | mass density ([2]; 293.15 K) | mass density ([2]; 298.15 K) | mass density ([2]; 308.15 K) |
| --- | --- | --- | --- | --- | --- | --- |
| O [water] + CCNCC | 999.964 ± 0.25 kg/m3 | – | – | – | – | – |
| CCNCC [diethylamine] | – | 719.94 ± 1.2 kg/m3 | 709.52 ± 1.2 kg/m3 | 704.59 ± 1.2 kg/m3 | 698.97 ± 1.2 kg/m3 | 688.29 ± 1.3 kg/m3 |
